Test results published in patent US5688949A, “Pyrazolo[1,5-A]pyrimidine derivatives and anti-inflammatory agent containing the same” (Otsuka Pharmaceutical Factory, Inc., priority 1991, dated 1997).

What was measured:
cyclooxygenase [1] = molecular target: T1, cyclooxygenase (Ovis aries, UniProt P05979); assay: Cyclooxygenase inhibitory activity test 2 (fixed concentration, sheep seminal vesicle microsome); type: biochemical; settings: same fixed concentration, 3×10^-7 M; PGE2 producing rate compared with control group
T1 construct: sheep seminal vesicle microsome, which is a crude enzyme solution; from tissue; host or cells: sheep seminal vesicle microsomes (crude enzyme solution)
T1 sequence (P05979 25-600): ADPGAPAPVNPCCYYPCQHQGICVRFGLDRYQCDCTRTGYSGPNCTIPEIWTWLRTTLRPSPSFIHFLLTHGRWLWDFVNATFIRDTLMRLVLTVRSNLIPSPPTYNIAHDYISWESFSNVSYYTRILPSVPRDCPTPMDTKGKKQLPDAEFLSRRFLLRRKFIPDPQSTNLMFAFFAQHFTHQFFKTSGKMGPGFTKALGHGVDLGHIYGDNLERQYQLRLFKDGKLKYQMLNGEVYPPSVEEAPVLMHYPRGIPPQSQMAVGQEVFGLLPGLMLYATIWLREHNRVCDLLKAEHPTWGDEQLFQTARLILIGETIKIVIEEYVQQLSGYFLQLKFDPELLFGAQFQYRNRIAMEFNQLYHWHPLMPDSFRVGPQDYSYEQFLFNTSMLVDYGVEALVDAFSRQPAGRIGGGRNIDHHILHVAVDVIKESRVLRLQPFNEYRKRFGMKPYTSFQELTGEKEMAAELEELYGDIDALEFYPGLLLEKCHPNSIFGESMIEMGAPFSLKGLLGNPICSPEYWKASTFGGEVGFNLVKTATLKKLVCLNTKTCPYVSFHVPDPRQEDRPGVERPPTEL
Method: The preparation of sheep seminal vesicle microsome, which is a crude enzyme solution, and the analysis of the cyclooxygenase activity were carried out according to the method of Miyamoto et al. as follows [cf.
(§1) That is, a test compound was added to a microsome solution, and the mixture was incubated at 24° C. for two minutes, and then, thereto was added a substrate, ^14 C-arachidonic acid. The mixture was further incubated for two minutes, and the reaction was quenched with a mixture of ether/methanol/0.2M citric acid (30:4:1), and extracted to collect a product produced by cyclooxygenase. The extract was spotted on a thin layer plate and the plate was developed. The fractions containing the arachidonic acid, prostaglandin E2 (PGE2) and the other parts were collected by scratching, respectively. Each part was measured with a scintillation counter, by which the cyclooxygenase activity therein was estimated.

cyclooxygenase [2] = molecular target: T1, cyclooxygenase; assay: Cyclooxygenase inhibitory activity test 1 (sheep seminal vesicle microsome, 14C-arachidonic acid); type: biochemical
Method: Cyclooxygenase inhibitory activity test 1:
The preparation of sheep seminal vesicle microsome, which is a crude enzyme solution, and the analysis of the cyclooxygenase activity were carried out according to the method of Miyamoto et al. as follows [cf. Proc. Natl. Acad. Sci., U.S.A., 71, 3645 (1974) and J. Biol. Chem., 251, 2629 (1976)].
as §1
The compounds prepared in Examples 2, 38, 44 and 46 were tested in the above experiment, and there were obtained the concentrations of the test compounds required to reduce the cyclooxygenase activity to 50% (cyclooxygenase inhibitory rate; IC50 value).

Row | inhibition at 0.3 µM (cyclooxygenase [1]) [%] | IC50 value relative to that of indomethacin ("times as high as that of indomethacin") (cyclooxygenase [2]; reference compound indomethacin) [times] | IC50 (cyclooxygenase [2]; sheep seminal vesicle microsome, 24° C., two minutes preincubation, two minutes with 14C-arachidonic acid, read-out: IC50 value (concentration required to reduce the cyclooxygenase activity to 50%)) [nM] | Compound
1 | 50.5 | – | – | CC(C)(C)c1cc(Nc2cc(C3CC3)nc3ccnn23)cc(C(C)(C)C)c1O [Example 46]
2 | 55.9 | – | – | CCc1cc(Nc2cc(C(C)(C)C)c(O)c(C(C)(C)C)c2)n2nccc2n1 [Example 44]
3 | 48.2 | – | – | CCCCc1cc(Nc2cc(C(C)(C)C)c(O)c(C(C)(C)C)c2)n2nccc2n1 [Example 38]
4 | 65 | 27.8 | 300 | Cc1cc(Nc2cc(C(C)(C)C)c(O)c(C(C)(C)C)c2)n2nccc2n1 [Example 2, 5-methyl-7-(3,5-di-t-butyl-4-hydroxyphenyl)aminopyrazolo[1,5-a]pyrimidine]
